Reference: the supplement of paper PMC10307832

compound: C1CC(C2=C(C1)C3=C(N2)C=CC(=C3)Cl)C(=O)N [Selisistat] + C[C@@H](Oc1cc(-c2cnn(C3CCNCC3)c2)cnc1N)c1c(Cl)ccc(F)c1Cl [Crizotinib] (partner 1 µM); assay: relative viability (nuclei count vs DMSO), 5 days (fraction); higher = more cells survive; conditions: first compound 0.4 µM
Method in brief: (§1)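 Lung cancer cell lines were pin-tool dosed in 1536-well plates on the day after seeding, with either a lone drug or a fixed anchor-drug dose plus five library-drug doses (not always all listed) in √10 steps. Nuclei were counted on 4× images after 5 days. Relative viability is the ratio of treated-well to vehicle-well nuclei counts, with each value a median of duplicate plates.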

Cell Line	relative viability
EMC-BAC-2	0.78
NCI-H2085	0.893
Calu-6	0.778
HCC-366	0.58
NCI-H1666	1.12
NCI-H596	1.11
LK-2	0.234
NCI-H2087	0.847
SK-MES-1	1.12
H3255	0.899
COR-L23	0.621
COR-L 105	0.716
IA-LM	0.646
LOU-NH91	0.766
ChaGo-K-1	1.15
NCI-H2170	1.2
NCI-H2405	0.825
HOP-62	0.682
HCC-44	0.804
A549	0.716
LU99A	0.568
NCI-H441	0.754
NCI-H1299	0.944

same assay, conditions: first compound 1.265 µM

Cell Line	relative viability
NCI-H727	0.816
NCI-H1650	0.966
EBC-1	0.19
NCI-H1703	0.556
NCI-H1993	0.92
SW 1573	0.791
NCI-H838	0.841
LCLC-103H	0.991
NCI-H520	0.714
NCI-H2126	0.976
EMC-BAC-2	0.74
NCI-H2085	0.702
Calu-6	0.602
HCC-366	0.681
NCI-H1666	0.871
NCI-H596	0.898
LK-2	0.255

Cell Line	relative viability
NCI-H2087	0.77
SK-MES-1	0.993
H3255	0.769
COR-L23	0.664
COR-L 105	0.786
IA-LM	0.759
LOU-NH91	0.664
ChaGo-K-1	1.04
NCI-H2170	1.16
NCI-H2405	0.807
HOP-62	0.957
HCC-44	0.788
A549	0.742
LU99A	0.438
NCI-H441	0.652
NCI-H1299	1

same assay, conditions: first compound 4 µM

Cell Line	relative viability
NCI-H1650	0.909
EBC-1	0.191
NCI-H1703	0.626
SW 1573	0.8
NCI-H838	0.888
LCLC-103H	0.996
NCI-H520	0.873
NCI-H2126	0.992
EMC-BAC-2	0.742
NCI-H2085	0.886
Calu-6	0.764
HCC-366	0.4
NCI-H1666	0.788
NCI-H596	0.853
LK-2	0.245
NCI-H2087	1.13
SK-MES-1	1.05
H3255	0.926
COR-L23	0.635
COR-L 105	0.748
IA-LM	1.2
LOU-NH91	0.683
NCI-H2170	1.22
NCI-H2405	0.787
HOP-62	1.09
HCC-44	0.957
A549	0.698
LU99A	0.662
NCI-H441	0.915
NCI-H1299	0.946

same assay, conditions: first compound 12.65 µM

Cell Line	relative viability
NCI-H1650	0.899
EBC-1	0.169
NCI-H1703	0.559
NCI-H1993	0.987
SW 1573	0.922
NCI-H838	0.759
LCLC-103H	0.999
NCI-H520	0.742
NCI-H2126	1.01
EMC-BAC-2	0.582
NCI-H2085	0.864
Calu-6	0.682
HCC-366	0.521
NCI-H1666	0.835
NCI-H596	0.991
LK-2	0.231

Cell Line	relative viability
NCI-H2087	0.763
SK-MES-1	0.875
H3255	0.899
COR-L23	0.537
COR-L 105	0.745
LOU-NH91	0.729
ChaGo-K-1	1.08
NCI-H2170	1.15
NCI-H2405	0.833
HOP-62	0.801
HCC-44	0.871
A549	0.709
LU99A	0.493
NCI-H441	0.673
NCI-H1299	0.944

same assay, conditions: first compound 40 µM

Cell Line	relative viability
NCI-H727	0.729
NCI-H1650	0.955
EBC-1	0.184
NCI-H1703	0.904
NCI-H1993	0.854
SW 1573	0.751
NCI-H838	0.801
LCLC-103H	1.07
NCI-H520	0.796
NCI-H2126	1.12
EMC-BAC-2	0.755
NCI-H2085	0.951
Calu-6	0.633
HCC-366	0.562
NCI-H1666	0.618
NCI-H596	0.905
LK-2	0.24

Cell Line	relative viability
NCI-H2087	0.784
SK-MES-1	0.959
H3255	0.734
COR-L23	0.581
COR-L 105	0.741
IA-LM	0.869
LOU-NH91	0.738
ChaGo-K-1	1.09
NCI-H2170	1.26
NCI-H2405	0.832
HOP-62	0.988
HCC-44	0.801
A549	0.728
LU99A	0.677
NCI-H441	0.806
NCI-H1299	1

compound: c1ccc2c(CCNc3ccc(Nc4ccncc4)cc3)c[nH]c2c1 [Serdemetan] + COc1cccc2cc(-c3nc([C@H]4CC[C@H](C(=O)O)CC4)n4ncnc(N)c34)[nH]c12 [OSI-027] (partner 0.5 µM); assay: as above; conditions: first compound 0.04 µM
Method in brief: as §1

Cell Line	relative viability
NCI-H522	0.814
NCI-H1623	0.457
NCI-H727	0.69
NCI-H1650	0.664
NCI-H1993	0.552
SW 1573	0.749
NCI-H838	0.434
LCLC-103H	0.431
